Data as given in patent US8980948B2, “Topical application of travoprost for combating hair loss” (Galderma Research & Development, priority 2007, dated 2015).

How the values were obtained:
C57BL/6 mouse = experiment: Model of regrowth of the body hair in the C57BL/6 mouse; assay type: in vivo; conditions: for Regrowth of the body hair versus ethanol ΔAUC (D 1-D 22): topical 50 μl
Description: The C57BU6 mice are each a particularly useful model for the study of hair growth:
In C57BU6 mice, the fur is black. In the trunk of the animals, the melanocytes are present solely in the hair follicles and the production of pigment is strictly correlated with the anagen phase of the hair cycle (Slominski A. and Paus R., J. Invest. Dermatol., 10, 90S-97S, 1993).
In young mice, the hair cycles are not in phase throughout the body but are synchronized in a region according to a rostro-caudal wave (Hale P. A. and Ebling F. J., J. Exp. Zool., 191, 49-62). At 42 days, the hair follicles of the dorsal region enter the telogen phase (Chase H. B. Physiol. Rev., 34, 113-126, 195).
Thus, after clipping and shaving the backs of C57BU6 mice aged 42 days, the regrowth can be easily visualized before the hair shafts appear at the surface by the grey appearance which the skin assumes. The delay in appearance of the grey color of the skin and the delay in appearance of the hair shafts after clipping and shaving represent criteria which give an account of the rate of entry of the hair follicle into the anagen phase and the rate of growth of the hair shaft. These two criteria will thus be used to evaluate the activity on the hair growth of the compounds tested.
The male C57BU6 mice are aged 42 days at the beginning of the study. The groups are formed of 10 animals.
On day D0, the backs of the animals are clipped with Minicut clippers equipped with a shoe (retention of 4 mm of hair shaft) and shaved with a Braun razor.
The study is carried out over 21 days.
The hair growth is evaluated according to the criteria defined in:
Minoxidil in solution in ethanol at 2.5% is used as positive control of the regrowth of the body hair.
Travoprost in its isopropyl ester form is used in solution in ethanol at 0.01%.
The travoprost, the minoxidil and the carrier are administered by the topical route using a pipette at the rate of 50 μl per application.
The minoxidil and the carrier are administered in repeated daily fashion from day 1 to day 21 of the study. Two different treatments are carried out with the travoprost: a first group receiving a single administration on day 1 of the study and a second group receiving five repeated daily and consecutive administrations from day 1 to day 5 of the study.
The following calculations are carried out: • Mean±SEM of the scores per day for each group treated. • Areas under the curve (AUC) of the regrowth scores per animal from D1 to D22. • Mean±SEM of the AUC values per treatment group. • Percentage of increase in the AUC values for each treated group versus the carrier group.
The AUC is obtained by summing the areas of the rectangles from the first and the final day of the study. The different treatment groups are compared with the carrier group with regard to this parameter by means of a Student's t-test.

human hair follicles = experiment: Human hair follicles kept alive: elongation of the hair shaft in organ culture; assay type: cell-based; conditions: 1 μM in DMSO; for Elongation at D 7: cumulative from D0, mean
Protocol: Human hair follicles are dissected while keeping the bulb and the connective and epithelial sheaths intact to be cultured in an appropriate medium which makes it possible to provide for the growth of the follicle ex vivo while keeping its structure intact in the growth or anagen phase (Stenn, Ann. N.Y. Acad. Sci., 1991, Dec. 26, 642, xi-xiii). The growth of the hair follicles in vitro is then evaluated using the measurement of elongation of the […].
Human hair follicles of “terminal” type are isolated from a skin sample resulting from facial surgery (lifting). For this, the skin is cut into pieces of approximately 5×5 mm. The hypodermis is separated from the dermis using a scalpel blade. The hair follicles are isolated from the hypodermal part under a binocular magnifier using fine forceps. Only the hair follicles in the growth phase with a bulb and intact connective and epithelial sheaths are retained for study.
The hair follicles thus isolated are incubated at 37° C. in a humid atmosphere (5% CO2 and 95% air) and are cultured individually in suspension for 7 days in William's E medium supplemented with 2 mM of L-glutamine, 10 μg/ml of insulin, 10 ng/ml of hydrocortisone and 1% of antibiotics/antimitotics. The culture medium is replaced every 2 or 3 days.
The travoprost in its acid form is taken up in DMSO at a concentration of 10^−2M and stored at −20° C. until used.
The surviving hair follicles are treated with the DMSO carrier at a final concentration of 0.1% or with the travoprost acid at a concentration of 1 μM in DMSO (final DMSO concentration also at 0.1%). For each condition, 22 hair follicles are treated individually subsequent to culturing at D0. In the case of a repeated treatment, the travoprost acid at 1 μM in DMSO is replaced at the time of the change in medium, this being done for 7 days. In the case of a single treatment, the travoprost acid at 1 μM DMSO is added to the culture medium just once in the culturing.
The growth of the hair follicles is determined by the measurement of the elongation of the hair shaft from day D0 to day D7. The elongation of the hair shaft is analyzed using Tina image analysis software. The measurements are carried out on hair follicles isolated at days D0, D3, D5 and D7.
The mean post-D0 length (by definition: the mean of the lengths measured on the days following D0) is considered:
The mean post-D0 length is a function: • of the initial length at D0 • of the treatment group • of other factors related to technological or biological variability.
In this study example, 15 hair follicles (all groups mixed up) out of 66 cultured were discarded.
It is assumed that the mean post-D0 length is the sum of four components:
Some measurements, referred to as “aberrant” measurements, can have a highly disruptive effect on the estimation of the effects of the model. A robust ANOVA method is applied with regard to these measurements: “LTS” (Least Trimmed Squares). The principle of the LTS method is as follows: • 1. A definition is made at the start of a fixed proportion p0 of observations which it is desired to ignore in the estimation of the effects (p0=10%) among all the observations present independently of the treatment (observations of the entire study). The corresponding number of observations is denoted n0. • 2. n0 points are selected at random and excluded from the estimation process. • 3. The parameters (effects) of the model are estimated. • 4. Among the observations, excluded and non-excluded, the n0 observations which are the least well predicted by the model are identified. • 5. The n0 least well predicted observations found in stage 4, are, in their turn, excluded from the estimation process. • 6. Stage 3 (estimation) is reverted to until the observations excluded in stage 5 remain unchanged (“convergence”).
The LTS process is repeated a large number of times (200) starting from different random selections. […]

[1] = single treatment at the time of culturing

## Nc1cc(N2CCCCC2)nc(N)[n+]1[O-] [Minoxidil, 2,4-diamino-6-piperidinopyrimidine 3-oxide]
C57BL/6 mouse; 2.5% in ethanol, repeated daily administrations (21 days)
  Regrowth of the body hair versus ethanol ΔAUC (D 1-D 22): +34%
C57BL/6 mouse; 2.5% in ethanol, repeated daily administrations (21 days), listed as minoxidil
  Regrowth of the body hair versus ethanol ΔAUC (D 1-D 22): 30%
C57BL/6 mouse; 2.5%, repeated daily administration for 21 days
  regrowth of the body hair in comparison with the carrier: accelerates the regrowth of the body hair

## O=C(O)CCC/C=C\C[C@@H]1[C@@H](/C=C/[C@@H](O)COc2cccc(C(F)(F)F)c2)[C@H](O)C[C@@H]1O [travoprost acid]
Human hair follicles; single treatment
  elongation in the hair shaft compared with carrier DMSO: greater than that obtained with the carrier DMSO
  time at which the effect on elongation appears: from the third day of treatment

## CC(C)OC(=O)CCC/C=C\C[C@@H]1[C@@H](/C=C/[C@@H](O)COc2cccc(C(F)(F)F)c2)[C@H](O)C[C@@H]1O [Travoprost, propane-2-yl (Z)-7-[(1R,2R,3R,5S)-3,5-dihydroxy-2-[(1E,3R)-3-hydroxy-4-[3-(trifluoromethyl)phenoxy]but-1-enyl]cyclopentyl]hept-5-enoate]
Human hair follicles; repeated treatment during 7 days
  AUC (D 0-D 7) of hair shaft elongation: 5.82
Human hair follicles; repeated treatment during 7 days of culturing
  Elongation at D 7: 1.23 mm
Human hair follicles; [1]
  AUC (D 0-D 7) of hair shaft elongation: 5.83
  Elongation at D 7: 1.27 mm
C57BL/6 mouse; 0.01% in ethanol, repeated daily administrations (5 days)
  Regrowth of the body hair versus ethanol ΔAUC (D 1-D 22): +7%
C57BL/6 mouse; 0.01% in ethanol, single administration on day 1
  Regrowth of the body hair versus ethanol ΔAUC (D 1-D 22): +31%
C57BL/6 mouse; 0.01% in ethanol, single administration on day 1, listed as travoprost
  Regrowth of the body hair versus ethanol ΔAUC (D 1-D 22): 31%
C57BL/6 mouse; 0.01%, repeated daily and consecutive administrations for 5 days
  regrowth of the body hair in comparison with the carrier: do not accelerate the regrowth of the body hairs
C57BL/6 mouse; 0.01%, single administration
  regrowth of the body hair in comparison with the carrier: significantly accelerates the regrowth of the body hair
